Experimental data from US20230416329A1, “A PEPTIDE WITH DISULFIDE BONDS AND INHIBITORY ACTIVITY AGAINST SERINE PROTEASES, DERIVED HYBRID PEPTIDES THEREOF, AND USES THEREOF” (INSTITUTE OF MATERIA MEDICA , CHINESE ACADEMY OF MEDICAL …, priority 2020, published 2023).
Bridge positions count the residues as written; N and C are the ends. Peptide text beside a SMILES is read from it.

Biological target: T1, bovine trypsin (Bos taurus, UniProt P00760)
T1 sequence (P00760 24-246): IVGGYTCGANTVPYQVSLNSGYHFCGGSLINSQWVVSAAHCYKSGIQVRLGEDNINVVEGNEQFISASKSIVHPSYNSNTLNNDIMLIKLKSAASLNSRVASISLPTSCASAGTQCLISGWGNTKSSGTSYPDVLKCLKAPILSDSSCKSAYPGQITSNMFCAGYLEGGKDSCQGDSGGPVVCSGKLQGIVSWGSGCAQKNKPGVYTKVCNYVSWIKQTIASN
Assay: Trypsin inhibitory activity of peptides (BApNA hydrolysis, OD405; IC50, Ki, residual activity)
Type: biochemical
Conditions: for Ki: read-out: inhibition constant (Ki) towards trypsin; for IC50: trypsin 50 nM, BApNA 1.22 mM, read-out: IC50
Description: The substrates N-succinyl-Ala-Ala-Pro-Phe-p-nitroaniline (AAPFpNA), Nα—Benzoyl-L-arginine-4-nitroaniline hydrochloride (BApNA) and N-succinyl-[…] (AAApNA) are used in competitive binding reaction to determine the inhibitory activities against α-chymotrypsin, bovine trypsin, and porcine pancreatic elastase, respectively. Experiments for α-chymotrypsin and bovine trypsin inhibition were measured in 20 mM CaCl2, 50 mM Tris-HCl buffer (pH 7.8), and that for porcine elastase inhibition was measured in 50 mM Tris-HCl buffer (pH 8.0). The concentration of the peptide was measured using optical density (OD) at 280 nm. The Michaelis constant (Km) of the enzyme hydrolysis substrate is calculated from the initial rate of substrate hydrolysis at 405 nm. The absorbance value of the substrate was measured at 405 nm after complete hydrolysis. All data were processed using nonlinear regression.
• (1) Added 200 μL of reaction buffer (20 mM CaCl2 and 50 mM Tris-HCl, pH 7.8) into the 96-well plate, and preheated at 37° C. for 15 min. Then added 5 μL of different concentrations of substrates (p-Nitroanilide, pNA, 0.5% in DMSO), and mixed by centrifugation at 500 rpm for 1 min. […] The experiment was performed in triplicate. The standard curve was obtained by plotting the OD405 nm value with pNA concentration. • (2) Added 190 μL of reaction buffer (20 mM CaCl2 and 50 mM Tris-HCl, pH 7.8) and 10 μL of 1 μM trypsin into the 96-well plate, and preheated at 37° C. for 15 min. Then added 5 μL of different concentrations of substrates (BApNA, 0.5% in DMSO) and mixed by centrifugation at 500 rpm for 1 min. […] The experiment was performed in triplicate. The corresponding curve was obtained by plotting the OD405 nm value with time. Divided the slope of the curve by the slope of the standard curve and the enzyme concentration to obtain the initial velocity V0 (mM/(min*mM protein). Plotted the initial velocity V0 with the concentration of substrate BApNA using Prism software, and the Michaelis constant Km value of trypsin hydrolyzing BApNA was obtained.
• (1) Added a total 190 μL of reaction buffer (20 mM CaCl2 and 50 mM Tris-HCl, pH 7.8) along with different concentrations of anti-trypsin peptides (BTs) into the pre-cooled 96-well plate, followed by preheating at 37° C., and spined down at 500 rpm for 5 min. Next added 10 μL of 1 μM trypsin, incubated at 37° C., and then spined down at 500 rpm for 10 min. Finally, added 5 μL of 50 mM BApNA, and mixed by centrifugation at 500 rpm for 1 min. The plate was incubated at 37° C. for 260 min, and the absorbance value at 405 nm was measured. The experiment was performed in triplicate. The blank control only contained the reaction buffer and the substrate as the minimum absorption value (Min OD405 nm). The negative control only contained the reaction buffer, the enzyme and the substrate as the maximum absorption value (Max OD405 nm). • (2) In the reaction system of 205 μL, the final concentrations of trypsin and BApNA were 50 nM and 1.22 mM, respectively. • (3) Data statistics
Residual activity of the enzyme (%)=(1−(Max OD405 nm−Sample OD405 nm)/(Max OD405 nm−Min OD405 nm))*100
Plotted the residual activity of the enzyme with […] to obtain the half inhibitory concentration (IC50) of BTs scaffold against trypsin. Then, substituted it into the formula Ki=IC50/(1+S/Km) (S, IC50 and Km were substrate concentration, half inhibitory concentration and Michaelis constant, respectively) to obtain the inhibition constant Ki of BTs scaffold against trypsin.

SMILES	Residual trypsin activity (peptide 0.488 μM) [%]	Residual trypsin activity (peptide 0.98 μM) [%]	Residual trypsin activity (peptide 1.95 μM) [%]	Residual trypsin activity (peptide 4.88 μM) [%]	Ki [nM]	IC50 [nM]	inhibitory activity against trypsin (in words)	Residual trypsin activity (peptide 0.00488 μM) [%]	Residual trypsin activity (peptide 0.0488 μM) [%]	other results
CC[C@H](C)[C@@H]1NC(=O)[C@@H]2CCCN2C(=O)[C@@H]2CCCN2C(=O)[C@H]([C@@H](C)CC)NC(=O)[C@H](CO)NC(=O)[C@H](CCCCN)NC(=O)[C@H]([C@@H](C)O)NC(=O)CNC(=O)[C@H](CCCCN)NC(=O)[C@H](C)NC(=O)CNC(=O)[C@@H](N)CSSC[C@@H](C(=O)N[C@@H](Cc2ccccc2)C(=O)N2CCC[C@H]2C(=O)N[C@@H](CC(=O)O)C(=O)O)NC1=O [BT2] (H-CGAKGTKSIPPICFPD-OH; disulfide 1-13; N-terminus and C-terminus assumed)	94.6 ± 1.7	83.6 ± 5.2	72.9 ± 6.1	12.9 ± 1.3	650	–	–	–	–	Residual trypsin activity (peptide 2.93 μM): 51.2 ± 9.0%; Residual trypsin activity (peptide 9.76 μM): 4.2 ± 0.4%; Residual trypsin activity (peptide 19.51 μM): 3.7 ± 0.5%; Residual trypsin activity (peptide 39.02 μM): 0.5 ± 0.1%
CC[C@H](C)[C@@H]1NC(=O)[C@@H]2CCCN2C(=O)[C@@H]2CCCN2C(=O)[C@H]([C@@H](C)CC)NC(=O)[C@H](CO)NC(=O)[C@H](CCCCN)NC(=O)[C@H]([C@@H](C)O)NC(=O)[C@H](C)NC(=O)[C@H](CCCCN)NC(=O)[C@H](C)NC(=O)CNC(=O)[C@@H](N)CSSC[C@@H](C(=O)N[C@@H](Cc2ccccc2)C(=O)N2CCC[C@H]2C(=O)N[C@@H](CC(=O)O)C(=O)O)NC1=O [BT3] (H-CGAKATKSIPPICFPD-OH; disulfide 1-13; N-terminus and C-terminus assumed)	67.2 ± 4.8	23.3 ± 5.3	–	1.8 ± 0.9	140	–	–	–	–	Residual trypsin activity (peptide 0.098 μM): 95.7 ± 3.6%; Residual trypsin activity (peptide 0.1463 μM): 86.8 ± 2.5%; Residual trypsin activity (peptide 0.293 μM): 85.6 ± 1.3%; Residual trypsin activity (peptide 9.76 μM): 0.9 ± 0.4%; Residual trypsin activity (peptide 19.51 μM): 0.1 ± 0.0%
CC[C@H](C)[C@@H]1NC(=O)[C@@H]2CCCN2C(=O)[C@@H]2CCCN2C(=O)[C@H]([C@@H](C)CC)NC(=O)[C@H](CO)NC(=O)[C@H](CCCCN)NC(=O)[C@H]([C@@H](C)O)NC(=O)CNC(=O)[C@H](CCCCN)NC(=O)[C@H](C)NC(=O)CNC(=O)[C@@H](N)CSSC[C@@H](C(=O)N[C@@H](CC(=O)O)C(=O)O)NC(=O)[C@H](Cc2ccccc2)NC(=O)CNC1=O [BT4] (H-CGAKGTKSIPPIGFCD-OH; disulfide 1-15 (inferred); N-terminus and C-terminus assumed)	–	–	–	–	–	> 50000	–	–	–	–
CC[C@H](C)[C@@H]1NC(=O)[C@@H]2CCCN2C(=O)[C@@H]2CCCN2C(=O)[C@H]([C@@H](C)CC)NC(=O)[C@H](CO)NC(=O)[C@H](CCCCN)NC(=O)[C@H]([C@@H](C)O)NC(=O)[C@H](C)NC(=O)[C@H](CCCNC(=N)N)NC(=O)CNC(=O)[C@@H](N)CSSC[C@@H](C(=O)N[C@@H](Cc2ccccc2)C(=O)N2CCC[C@H]2C(=O)N[C@@H](CC(=O)O)C(=O)O)NC1=O [BT5] (H-CGRATKSIPPICFPD-OH; disulfide 1-12; N-terminus and C-terminus assumed)	3.0 ± 0.2	0.7 ± 0.1	–	–	30	–	enhanced trypsin inhibitory activity	103.7 ± 5.2	83.1 ± 0.4	Residual trypsin activity (peptide 0.00098 μM): 104.0 ± 5.2%; Residual trypsin activity (peptide 0.002439 μM): 108.1 ± 2.6%; Residual trypsin activity (peptide 0.098 μM): 75.2 ± 5.9%
CC[C@H](C)[C@@H]1NC(=O)[C@@H]2CCCN2C(=O)[C@@H]2CCCN2C(=O)[C@H]([C@@H](C)CC)NC(=O)[C@H](CO)NC(=O)[C@H](CCCCN)NC(=O)[C@H]([C@@H](C)O)NC(=O)[C@H](C)NC(=O)[C@H](CO)NC(=O)CNC(=O)[C@@H](N)CSSC[C@@H](C(=O)N[C@@H](Cc2ccccc2)C(=O)N2CCC[C@H]2C(=O)N[C@@H](CC(=O)O)C(=O)O)NC1=O [BT6] (H-CGSATKSIPPICFPD-OH; disulfide 1-12; N-terminus and C-terminus assumed)	25.9 ± 2.9	8.5 ± 0.9	2.8 ± 0.0	1.2 ± 0.2	60	290	enhanced trypsin inhibitory activity	111.9 ± 7.2	–	Residual trypsin activity (peptide 0.000488 μM): 99.3 ± 7.2%; Residual trypsin activity (peptide 0.002439 μM): 108.6 ± 7.1%; Residual trypsin activity (peptide 0.195 μM): 77.5 ± 7.6%
CC[C@H](C)[C@@H]1NC(=O)[C@@H]2CCCN2C(=O)[C@@H]2CCCN2C(=O)[C@H]([C@@H](C)CC)NC(=O)[C@H](CO)NC(=O)[C@H](CCCCN)NC(=O)[C@H]([C@@H](C)O)NC(=O)[C@H](C)NC(=O)[C@H](C)NC(=O)CNC(=O)[C@@H](N)CSSC[C@@H](C(=O)N[C@@H](Cc2ccccc2)C(=O)N2CCC[C@H]2C(=O)N[C@@H](CC(=O)O)C(=O)O)NC1=O [BT7] (H-CGAATKSIPPICFPD-OH; disulfide 1-12; N-terminus and C-terminus assumed)	–	5.7 ± 1.7	1.5 ± 0.3	–	50	–	enhanced trypsin inhibitory activity	–	95.2 ± 1.1	Residual trypsin activity (peptide 0.000098 μM): 103.5 ± 1.6%; Residual trypsin activity (peptide 0.0002439 μM): 107.8 ± 3.2%; Residual trypsin activity (peptide 0.000488 μM): 97.9 ± 4.3%; Residual trypsin activity (peptide 0.2439 μM): 48.5 ± 5.3%; Residual trypsin activity (peptide 1.463 μM): 2.9 ± 1.1%
CC[C@H](C)[C@@H]1NC(=O)[C@@H]2CCCN2C(=O)[C@@H]2CCCN2C(=O)[C@H]([C@@H](C)CC)NC(=O)[C@H](CO)NC(=O)[C@H](CCCCN)NC(=O)[C@H]([C@@H](C)O)NC(=O)[C@H](C)NC(=O)[C@H](CCCNC(=N)N)NC(=O)CNC(=O)[C@@H](N)CSSC[C@@H](C(=O)O)NC1=O [BT8] (H-CGRATKSIPPIC-OH; disulfide 1-12 (inferred); N-terminus and C-terminus assumed)	–	–	–	–	–	> 50000	–	–	–	–
CC[C@H](C)[C@@H]1NC(=O)[C@@H]2CCCN2C(=O)[C@@H]2CCCN2C(=O)[C@H]([C@@H](C)CC)NC(=O)[C@H](CO)NC(=O)[C@H](CCCCN)NC(=O)[C@H]([C@@H](C)O)NC(=O)[C@H](C)NC(=O)[C@H](CCCNC(=N)N)NC(=O)CNC(=O)[C@@H](N)CSSC[C@@H](C(=O)N[C@@H](Cc2ccccc2)C(=O)O)NC1=O [BT9] (H-CGRATKSIPPICF-OH; disulfide 1-12; C-terminus assumed)	−0.2 ± 0.1	−0.4 ± 0.0	–	–	10	70	excellent trypsin inhibitory activities	99.0 ± 0.5	68.1 ± 1.4	Residual trypsin activity (peptide 0.00098 μM): 100.4 ± 0.6%; Residual trypsin activity (peptide 0.0098 μM): 94.3 ± 1.3%; Residual trypsin activity (peptide 0.02439 μM): 84.2 ± 1.9%; Residual trypsin activity (peptide 0.2439 μM): 0.3 ± 0.0%
